# Measurements published in patent US20110053897A1 (IRM LLC, priority 2009, published 2011).
# Biological target: T1, Syk kinase (Homo sapiens, UniProt P43405)
# T1 construct: purchased
# Assay: Syk kinase inhibition, Caliper LabChip off-chip mobility-shift kinase assay
# Type: biochemical
# Details: Caliper LabChip assay; read-out: Syk Enzyme IC50
# Procedure, shortened: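 Purified Syk pre-incubated 15 min with compound in 100 mM HEPES pH 7.5, 1 mM DTT, 10 mM MgCl2 or MnCl2, 0.002% Brij-35, then 1.5 μM fluorescein peptide and ATP at apparent KM added; 1–1.5 h at room temperature, 4% DMSO, EDTA stop. Microfluidic mobility-shift product/substrate conversion gave % inhibition; IC50 from 12-point series (10–0.00003 μM) by 4-parameter fit.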
row,IC50 [nM],Compound
1,500,CC(C)(C)Nc1nc(Nc2cc(N3CCC(CO)CC3)ccn2)cc2ccn(CCO)c(=O)c12 [compound 847]
2,231,CC(C)(C)Nc1nc(Nc2cc(C(F)(F)F)ccn2)cc2ccn(CCO)c(=O)c12 [compound 901]
3,203,Cc1ccnc(Nc2cc3ccn(CCO)c(=O)c3c(NC3CCS(=O)(=O)C3)n2)c1 (stereo not drawn) [compound 974]
4,90,CC(C)(C)Nc1nc(Nc2ccncn2)cc2ccn(CCO)c(=O)c12 [compound 736]
5,165,CC(C)n1ccc2cc(Nc3cnccn3)nc(NC(C)(C)C)c2c1=O [compound 822]
6,85,CCn1ccc2cc(Nc3cc(C(C)(C)O)ccn3)nc(NC3(C)CCC3)c2c1=O [compound 702]
7,286,Cc1ccnc(Nc2cc3ccn(CCO)c(=O)c3c(NC3(C)CCC3)n2)c1 [compound 599]
8,18,Nc1ncc(-c2cc3ccn(C[C@H](O)CO)c(=O)c3c(NC3CCCC3)n2)cn1 [compound 776]
9,413,CCn1ccc2cc(Nc3cc(C)ccn3)nc(NCC(O)C(F)(F)F)c2c1=O (stereo not drawn) [compound 778]
10,29,Cc1ccnc(Nc2cc3ccn(C(C)C)c(=O)c3c(N[C@@H](C)CO)n2)c1 [compound 966]
11,103,Cn1cc2cc(Nc3nc(Nc4cnccn4)cc4ccn(CCO)c(=O)c34)ccc2n1 [compound 659]
12,113,CC(C)Nc1nc(Nc2cc(-c3cccnc3)ccn2)cc2ccn(C)c(=O)c12 [compound 1046]
13,862,CCn1ccc2cc(Nc3cc(C)ccn3)nc(NCCC(F)(F)F)c2c1=O [compound 780]
14,12,CC(C)(C)Nc1nc(Nc2cnccn2)cc2cc[nH]c(=O)c12 [compound 679]
15,35,CC(C)(C)Nc1nc(Nc2cc(C(C)(C)O)ncn2)cc2ccn(CCS(C)(=O)=O)c(=O)c12 [compound 739]
16,128,CC1(Cn2ccc3cc(-c4cnc(N)nc4)nc(NC4CCCC4)c3c2=O)COC1 [compound 760]
17,194,Cn1ccc2cc(Nc3nccc(O)n3)nc(Nc3ccc(C(N)=O)cc3)c2c1=O [compound 804]
18,179,CC(C)(C)Nc1nc(Nc2cnccn2)cc2ccn(CC(F)F)c(=O)c12 [compound 1023]
19,49,CC(C)(C)Nc1nc(Nc2cnccn2)cc2ccn(CCF)c(=O)c12 [compound 1001]
20,216,CC(C)(C)Nc1nc(Nc2cc(N3CCC(O)CC3)ccn2)cc2ccn(CCO)c(=O)c12 [compound 846]
21,155,CC1(Nc2nc(Nc3cc(C(C)(C)O)ccn3)cc3ccn(CC(N)=O)c(=O)c23)CCC1 [compound 722]
22,66,CC1(Nc2nc(Nc3cc(C(O)C(F)(F)F)ccn3)cc3ccn(CC(N)=O)c(=O)c23)CC1 (stereo not drawn) [compound 614]
23,46,CCn1ccc2cc(-c3cnc(N)nc3)nc(N[C@H]3CC[C@H](O)CC3)c2c1=O [compound 1032]
24,36,CC(C)n1ccc2cc(Nc3cnccn3)nc(N[C@H]3CCC[C@H]3O)c2c1=O [compound 980]
25,82,CC(C)(C)Nc1nc(Nc2cc(C(N)=O)ccn2)cc2ccn(CCO)c(=O)c12 [compound 681]
26,7,CCn1ccc2cc(-c3cnc(N)nc3)nc(N[C@H]3C[C@@H](CO)C3)c2c1=O [compound 748]
27,72,Nc1ncc(-c2cc3ccn(CCN4CCOCC4)c(=O)c3c(N[C@H]3CC[C@@H](O)CC3)n2)cn1 [compound 1029]
28,17,CC1(Nc2nc(Nc3cnccn3)cc3ccn(CCO)c(=O)c23)CC1 [compound 838]

# Same assay, conditions: read-out: Syk Enzyme IC50
row,IC50 [nM],Compound
1,2060,CCOCCOc1ccc(Nc2nc(Nc3cnccn3)cc3ccn(C)c(=O)c23)cc1 [compound 340]
2,145,Nc1ncc(-c2cc3cc[nH]c(=O)c3c(NC3CCOC3)n2)cn1 (stereo not drawn) [compound 185]
3,24,COc1cncc(-c2cc3cc[nH]c(=O)c3c(Nc3ccc(CCC(=O)N4CCOCC4)cc3)n2)n1 [compound 25]
4,102,CO/N=C(\C)c1cc2cc[nH]c(=O)c2c(Nc2ccc(C3CCNCC3)c(C)c2)n1 [compound 235]
5,2500,O=C(N1CC2CC(C1)c1cc(Nc3nc(-c4cnccn4)cc4cc[nH]c(=O)c34)ccc12)C(F)(F)F (stereo not drawn) [compound 97]
6,93,Nc1ncc(-c2cc3cc[nH]c(=O)c3c(NCCc3cccnc3)n2)cn1 [compound 188]
7,5,CCC(C(=O)O)N1CCC(c2ccc(Nc3nc(-c4cncc(OC)n4)cc4cc[nH]c(=O)c34)cc2C)CC1 (stereo not drawn) [compound 119]
8,476,CCn1ccc2cc(Nc3cc(C)ccn3)nc(N[C@H]3CCCC[C@@H]3O)c2c1=O (racemic) [compound 406]
9,701,Cc1ccnc(Nc2cc3ccn(C)c(=O)c3c(Nc3cc(C)ccn3)n2)c1 [compound 569]
10,112,Cn1ccc2cc(Nc3cnccn3)nc(Nc3ccc(C4CCNCC4)cc3)c2c1=O [compound 341]
11,350,Cc1cc(Nc2nc(-c3ccc(N(C)C)nc3)cc3cc[nH]c(=O)c23)ccc1C1CCN(C2CC2)CC1 [compound 218]
12,5,CNC(C)(C)C(=O)N1CCC(c2ccc(Nc3nc(-c4cncc(OC)n4)cc4cc[nH]c(=O)c34)cc2C)CC1 [compound 84]
13,430,CCN1CCN(CCc2ccc(Nc3nc(Nc4ccc(C)cn4)cc4cc[nH]c(=O)c34)cc2)CC1 [compound 563]
14,155,COc1cncc(-c2cc3cc[nH]c(=O)c3c(Nc3ccc(C4CCN(C(=O)C5(N)CC5)CC4)c(C)c3)n2)n1 [compound 60]
15,197,Cc1cc(Nc2nc(-c3cnn(CC(C)C)c3)cc3cc[nH]c(=O)c23)ccc1C1CCN(C2CC2)CC1 [compound 211]
16,36,Cn1ccc2cc(Nc3cc(Cl)ccn3)nc(N[C@H]3CC[C@@H](O)CC3)c2c1=O [compound 379]
17,328,Cc1cc(Nc2nc(-c3ccnc(N)n3)cc3cc[nH]c(=O)c23)ccc1C1CCN(CCC#N)CC1 [compound 67]
18,14,O=c1c2c(N[C@H]3CCOC3)nc(Nc3cnccn3)cc2ccn1CCO [compound 375]
19,59,CC(C)(C)Nc1nc(-c2cnc(N)nc2)cc2cc[nH]c(=O)c12 [compound 455]
20,201,COc1ncc(-c2cc3cc[nH]c(=O)c3c(Nc3ccc(CCN4CCNC(=O)C4)cc3)n2)cn1 [compound 151]
21,117,Cc1ncc(-c2cc3cc[nH]c(=O)c3c(Nc3ccc(C4CCN(C5CS(=O)(=O)C5)CC4)c(C)c3)n2)cn1 [compound 107]
22,60,CCN1CCN(c2n[nH]c3cc(Nc4nc(-c5cncc(C(=O)N6CCOCC6)c5)cc5cc[nH]c(=O)c45)ccc23)CC1 [compound 206]
23,176,CCn1ccc2cc(Nc3cc(C)ccn3)nc(NC[C@H]3CC[C@@](C)(O)C3)c2c1=O [compound 416]
24,62,Cn1ccc2cc(-c3cnc(N)nc3)nc(NC3CC3)c2c1=O [compound 38]
25,129,COc1cncc(-c2cc3cc[nH]c(=O)c3c(Nc3ccc(C4CCN(CC5CC5(F)F)CC4)c(C)c3)n2)n1 (stereo not drawn) [compound 78]
26,27,CCN1CCN(Cc2n[nH]c3cc(Nc4nc(-c5cncnc5)cc5cc[nH]c(=O)c45)ccc23)CC1 [compound 202]
27,1740,Cc1cc(Nc2nc(C(C)C)cc3cc[nH]c(=O)c23)ccc1N1CCO[C@H](C)C1 [compound 226]
28,37,Cc1ccnc(Nc2cc3ccn(C)c(=O)c3c(N[C@@H](C)CO)n2)c1 [compound 323]
29,17,COCCN1CCN(c2n[nH]c3cc(Nc4nc(-c5cncnc5)cc5cc[nH]c(=O)c45)ccc23)CC1 [compound 214]
